Test system: live leukemic cells of AML patient samples (bone marrow or peripheral blood)
Test: Ex-vivo effect on AML patient samples, depletion of live leukemic cells by flow cytometry
Assay type: cell-based, human
Conditions: plates incubated for 48 hours
Protocol: Patient samples were obtained from a non-interventional and prospective study. The study included samples from adult patients over 18 years of age who were diagnosed with Acute Myeloid Leukemia (AML).
In one embodiment, the method of data acquisition was performed as follows: on day 1 bone marrow (BM) or peripheral blood (PB) patient sample was received. A small part was separated from the rest of the sample for validation, while the majority of the sample was diluted with culture media and plated into 96-well plates previously prepared with the desired compounds and compound combinations, e.g., a compound or compound combination described herein. The number of live leukemic cells seeded in each well was fixed between 8000 and 32000, depending on the percentage of leukemic cells for each sample. […] Antibodies were added to identify leukemic cells using a gating strategy based on FSC/SSC and expression or lack of expression of different surface markers. The monoclonal antibodies selection was performed to optimize the identification of leukemic cell in each sample.
In one embodiment, non-limiting examples of biomarkers such as the biomarkers CD34, CD45, CD117, and HLADR known as “backbone markers” for AML (van Dongen, J. J. and A. Orfao, EuroFlow: Resetting leukemia and lymphoma immunophenotyping. Basis for companion diagnostics and personalized medicine, Leukemia, 2012, 26, 1899-907) were included in the combination.
In one embodiment, antibody combinations such as CD117/CD45, CD34/CD45, and HLADR/CD45 were used. Live leukemic cells were identified by their light scatter properties (FSC^int/hi/SSC^int) in the absence of Annexin-V-FITC staining. FSC/SSC selection was performed to exclude debris. The average percentage of cell viability upon receipt of the sample was 80% and samples were only processed if the viability was greater than 50%.
In one embodiment, sample validation was performed as follows: BM and PB samples were extracted under sterile conditions and received in the laboratory within 24 hours of extraction. Initial analysis evaluated the number of pathological cells and their viability. Different volumes of sample (1 μL, 3 μL, 5 μL and 7 μL) were aliquoted in duplicate into a 96-well plate. To lyse red blood cells, 180 μL of ammonium chloride lysis solution was added to each well (2 g KHCO3, 16.58 g NH4Cl, 0.074 g Na2EDTA.2H2O, H2O to 1 L). Following a 10 min incubation period at 4° C., plate was centrifuged for 5 min at 1200 rpm and the supernatant removed. The lysis step was performed twice. To analyze, 20 μL of a combination of Annexin V-FITC (Immunostep, Salamanca, Spain), binding buffer (BB, 2.4 g HEPES, 8.19 g NaCl, 0.37 g Cl2Ca, H2O to 1 L), and the following monoclonal antibodies (mAb) were added to each well: CD117 (clone 104D2)-PE (Becton Dickinson, San Jose, Calif., US), CD34 (clone 581)-PerCP (BioLegend, San Diego, Calif., US), HLADR (clone L243)-PB (BioLegend) and CD45 (HI30)-PO (Life Technologies, Carlsbad, Calif., US) (van Dongen, J. J., et al., EuroFlow antibody panels for standardized n-dimensional flow cytometric immunophenotyping of normal, reactive and malignant leukocytes, Leukemia, 2012, 26, 1908-75). After 15 min of incubation at room temperature in the dark, a wash step was performed using binding buffer solution. The pellet was resuspended in 30 μL BB for analysis in Vivia's ExviTech© platform. Cell count and viability upon arrival were computed and the optimal volume of sample to use per well was determined.
In one embodiment, the assay was performed according to following method: the whole sample was diluted with RPMI 1640, supplemented with 20% (v/v) FBS (Thermo Scientific, Waltham, Mass., US), 2% HEPES, 1% antibiotic (Zell Shield, Labclinics, Barcelona, Spain) and 1% L-glutamine 200 mM (Lonza, Hopkinton, Mass., US) to a final volume of 60 μL per well. […]

Structure (SMILES)	EC50 (Homo sapiens, 48 h) [µM]	EC50 [µM]	Emax (Homo sapiens, 48 h) [%]	Emax (Homo sapiens) [%]	Emax (%)
CC(C)OC(=O)[C@H](C)NP(=O)(OC[C@H]1S[C@@H](n2ccc(N)nc2=O)[C@@H](O)[C@@H]1O)Oc1ccccc1 (single isomer, unassigned) [drawing 47]	≥ 20			0 to 10	
CC(C)OC(=O)[C@H](C)NP(=O)(OC[C@H]1S[C@@H](n2ccc(N)nc2=O)[C@@H](O)[C@@H]1O)Oc1ccccc1 (single isomer, unassigned) [drawing 48]		10 to 20			A (A=0-10%)
CCOC(=O)COP(=O)(N[C@@H](CC(C)C)C(=O)OCC)OC[C@H]1S[C@@H](n2ccc(N)nc2=O)[C@@H](O)[C@@H]1O (single isomer, unassigned) [drawing 51]	10 to 20		0 to 10		
Nc1ccn([C@@H]2S[C@H](COP(=O)(NCc3ccccc3)OCc3ccc([N+](=O)[O-])o3)[C@@H](O)[C@@H]2O)c(=O)n1 (single isomer, unassigned) [drawing 52]		10 to 20	0 to 10		
Nc1ccn([C@@H]2S[C@H](COP(=O)(NCc3ccccc3)OCc3ccc([N+](=O)[O-])o3)[C@@H](O)[C@@H]2O)c(=O)n1 (single isomer, unassigned) [drawing 53]		1 to 10			A (A=0-10%)
COC(=O)COP(=O)(N[C@@H](CC(C)C)C(=O)OC)OC[C@H]1S[C@@H](n2ccc(N)nc2=O)[C@@H](O)[C@@H]1O (single isomer, unassigned) [drawing 55]		1 to 10			
CC(C)(C)SSCCOP(=O)(NCc1ccccc1)OC[C@H]1S[C@@H](n2ccc(N)nc2=O)[C@@H](O)[C@@H]1O (single isomer, unassigned) [drawing 58]		≥ 20			C (C>20%)
Nc1ccn([C@@H]2S[C@H](COP(=O)(O)NCc3ccccc3)[C@@H](O)[C@@H]2O)c(=O)n1 [drawing 49]	1 to 10		10 to 20		

Second part, led by results:

EC50 (Homo sapiens, 48 h) [µM]	EC50 [µM]	Structure (SMILES)	Emax (Homo sapiens, 48 h) [%]	Emax (Homo sapiens) [%]	Emax (%)
≥ 20		CC(=O)OC[C@H](C)NP1(=O)OC[C@H]2S[C@@H](n3ccc(N)nc3=O)[C@@H](O)C2O1 (stereo partly shown)	> 20		
	10 to 20	CCOC(=O)COP(=O)(N[C@@H](CC(C)C)C(=O)OCC)OC[C@H]1S[C@@H](n2ccc(N)nc2=O)[C@@H](O)[C@@H]1O (single isomer, unassigned) [drawing 50]			
1 to 10		COC(=O)COP(=O)(N[C@@H](CC(C)C)C(=O)OC)OC[C@H]1S[C@@H](n2ccc(N)nc2=O)[C@@H](O)[C@@H]1O (single isomer, unassigned) [drawing 54]	0 to 10		
≥ 20		CC(C)(C)SSCCOP(=O)(NCc1ccccc1)OC[C@H]1S[C@@H](n2ccc(N)nc2=O)[C@@H](O)[C@@H]1O (single isomer, unassigned) [drawing 57]	10 to 20		
